# Measurements from US20210198277A1, “AMINE-SUBSTITUTED ARYL OR HETEROARYL COMPOUNDS” (Epizyme, Inc., priority 2016, published 2021).
# Target: T1, EHMT2 (Homo sapiens, UniProt Q96KQ7)
# T1 construct: host or cells: MDA-MB-231
# T1 sequence (Q96KQ7 1-1210): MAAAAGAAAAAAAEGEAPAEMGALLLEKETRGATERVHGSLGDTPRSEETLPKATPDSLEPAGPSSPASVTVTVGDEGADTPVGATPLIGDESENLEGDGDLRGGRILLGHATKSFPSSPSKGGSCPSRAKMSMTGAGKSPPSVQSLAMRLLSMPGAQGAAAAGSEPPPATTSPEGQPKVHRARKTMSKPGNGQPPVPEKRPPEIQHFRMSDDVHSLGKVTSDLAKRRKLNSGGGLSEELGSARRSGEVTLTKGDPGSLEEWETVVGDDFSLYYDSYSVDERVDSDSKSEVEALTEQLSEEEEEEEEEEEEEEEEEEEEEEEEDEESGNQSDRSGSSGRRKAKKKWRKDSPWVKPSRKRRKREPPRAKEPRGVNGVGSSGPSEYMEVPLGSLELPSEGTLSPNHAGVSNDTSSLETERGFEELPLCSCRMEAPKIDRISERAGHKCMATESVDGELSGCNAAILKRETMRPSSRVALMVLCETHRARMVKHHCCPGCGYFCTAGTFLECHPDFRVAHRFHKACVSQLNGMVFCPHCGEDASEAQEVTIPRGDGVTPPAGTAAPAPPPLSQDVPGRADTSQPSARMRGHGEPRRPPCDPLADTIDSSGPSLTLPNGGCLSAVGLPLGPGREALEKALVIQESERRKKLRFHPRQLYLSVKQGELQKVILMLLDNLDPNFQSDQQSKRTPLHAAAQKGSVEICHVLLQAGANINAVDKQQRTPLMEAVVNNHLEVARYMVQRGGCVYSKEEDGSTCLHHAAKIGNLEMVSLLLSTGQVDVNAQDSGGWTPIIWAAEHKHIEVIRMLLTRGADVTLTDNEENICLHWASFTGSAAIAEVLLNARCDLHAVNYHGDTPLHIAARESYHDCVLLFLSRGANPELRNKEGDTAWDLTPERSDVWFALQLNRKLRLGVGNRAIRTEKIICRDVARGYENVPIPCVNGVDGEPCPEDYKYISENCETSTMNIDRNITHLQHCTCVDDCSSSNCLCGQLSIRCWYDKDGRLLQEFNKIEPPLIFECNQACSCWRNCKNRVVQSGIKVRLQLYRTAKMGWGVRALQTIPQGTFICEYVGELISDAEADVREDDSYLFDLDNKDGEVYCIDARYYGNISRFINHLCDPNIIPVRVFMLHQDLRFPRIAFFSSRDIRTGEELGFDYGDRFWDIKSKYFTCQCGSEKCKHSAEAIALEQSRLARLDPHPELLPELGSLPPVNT
# Assay: MDA-MB-231 H3K9me2 in-cell Western assay (EHMT2 ICW)
# Format: cell-based
# Conditions: Table VI; read-out: EHMT2 ICW IC50
# How it was run: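 For 48 h at 37 °C, breast cancer MDA-MB-231 cells were incubated with compound, then fixed and immunostained for H3K9me2, with DRAQ5 used for normalisation. Each well's signal ratio yielded percent inhibition, and IC50 values were derived by fitting a four-parameter curve.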
row,SMILES,IC50 [nM]
1,CNc1cc(C)nc(Nc2cnc(OC)c(OC[C@@H]3CCN(C4CCC4)C3)c2)n1 [Compound 798],100 to 1000
2,COc1ccc(Nc2nc(C)cc(NC(C)C)n2)cc1OC[C@@H]1CCNC1 [Compound 800],100 to 1000
3,COc1cnc(Nc2nccc3nccn23)cc1OC[C@@H]1CCNC1 [Compound 801],> 10000
4,CNc1cc(C2CCOCC2)c2cc(OC)c(OC[C@@H]3CCNC3)cc2n1 [Compound 802],1000 to 10000
5,CNc1cc(C2CCOCC2)c2cc(OC)c(OC[C@@H]3CCN(C)C3)cc2n1 [Compound 803],1000 to 10000
6,COc1cc(NC2CCOCC2)ncc1OCC1CCNC1 (centres unmarked) [Compound 806],> 10000
7,COc1cc(N(C)C2CCOCC2)ncc1OCC1CCNC1 (centres unmarked) [Compound 808],> 10000
8,CNc1cc(C2CCN(C(C)=O)CC2)c2cc(OC)c(OCCCN3CCCC3)cc2n1 [Compound 809],100 to 1000
9,COc1cc2c(C)cc(N3CCCCC3)nc2cc1OCCCN1CCCC1 [Compound 810],1000 to 10000
10,COc1cc2c(C)nc(N3CCCCC3)nc2cc1OCCCN1CCCC1 [Compound 811],> 10000
11,COc1cc2c(C3CCN(C)CC3)cc(N3CCCCC3)nc2cc1OCCCN1CCCC1 [Compound 812],100 to 1000
12,CNc1cc(C)nc(Nc2ccc(OC)c(CN[C@H]3CCNC3)c2)n1 [Compound 813],> 10000
13,CNc1cc(C)nc(Nc2ccc(OC)c(CN[C@@H]3CCNC3)c2)c1 [Compound 814],> 10000
14,CNc1cc(C2CCCCC2)c2cc(OC)c(OCCCN3CCCC3)cc2n1 [Compound 816],100 to 1000
15,CNc1cc(C(C)C)c2cc(OC)c(OCCCN3CCCC3)cc2n1 [Compound 817],100 to 1000
16,COc1cc2c(C3CCOCC3)cc(=O)[nH]c2cc1OCCCN1CCCC1 [Compound 822],> 10000
17,CNc1cc(CC2CCOCC2)c2cc(OC)c(OCCCN3CCCC3)cc2n1 [Compound 823],100 to 1000
18,COc1cc2c(C3CCOCC3)cc(N3CCCCC3)nc2cc1OCCCN1CCCC1 [Compound 824],1000 to 10000

row,SMILES,IC50 [nM]
1,COc1cc2c(C3CCOCC3)cc(N(C)C)nc2cc1OCCCN1CCCC1 [Compound 825],1000 to 10000
2,CNc1cc(C2CCN(CCC(F)(F)F)CC2)c2cc(OC)c(OCCCN3CCCC3)cc2n1 [Compound 832],< 100
3,CNc1cc(C2CCN(CC(F)(F)F)CC2)c2cc(OC)c(OCCCN3CCCC3)cc2n1 [Compound 833],100 to 1000
4,COc1cc2c(C3CCN(C(C)=O)CC3)cc(C)nc2cc1OCCCN1CCCC1 [Compound 834],1000 to 10000
5,CCS(=O)(=O)N1CCC(c2cc(C)nc3cc(OCCCN4CCCC4)c(OC)cc23)CC1 [Compound 836],1000 to 10000
6,COc1cc2c(C3CCN(CC(F)(F)F)CC3)cc(C)nc2cc1OCCCN1CCCC1 [Compound 837],1000 to 10000
7,COc1cc2c(C3CCN(CCC(F)(F)F)CC3)cc(C)nc2cc1OCCCN1CCCC1 [Compound 838],100 to 1000
8,CNc1cc(C2CCN(CCOC)CC2)c2cc(OC)c(OCCCN3CCCC3)cc2n1 [Compound 839],< 100
9,COc1cc2c(C3CCN(CC(F)(F)F)CC3)nc(C)nc2cc1OCCCN1CCCC1 [Compound 841],> 10000
10,CNc1cc(C)nc(Nc2ccc(OC)c(C#CC3CCNC3)c2)n1 (centres unmarked) [Compound 845],100 to 1000
11,CNc1cc(C)nc(Nc2ccc(OC)c(C#CC3CCCN3)c2)n1 (centres unmarked) [Compound 846],100 to 1000
12,CNc1cc(C)nc(Nc2ccc(OC)c(C#CC3CCN(C)C3)c2)n1 (centres unmarked) [Compound 847],1000 to 10000
13,CNc1cc(C)nc(Nc2ccc(OC)c(C#CC3CCCN3C)c2)n1 (centres unmarked) [Compound 848],100 to 1000
14,CNC(=O)c1cc(C)nc(Nc2ccc(OC)c(OCCCN3CCCC3)c2)n1 [Compound 854],> 10000
15,CNc1cc(C)c2cc(OC)c(C#CCN3CCCC3)cc2n1 [Compound 859],100 to 1000
16,CNc1cc(C)nc(Nc2ccc(OC)c(C#CCN3CCN(C)CC3)c2)n1 [Compound 860],> 10000
17,COc1cc2c(C3CCN([C@@H]4CCOC4)CC3)cc(C)nc2cc1OCCCN1CCCC1 [Compound 863],100 to 1000
